This assay deals with C2C12 myotubes + simvastatin, ATP luminescence, 48 h. Kind of assay: rescue of simvastatin-induced ATP loss – cell-based, C2C12 myotubes, ATP luminescence, cherry pick, dose response (AID 624405).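 Also: myotubes are challenged with simvastatin at 10 µM to lower ATP.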

We go through 58 compounds from PubChem BioAssay AID624405 (Broad Institute, 2012).

Inconclusive results are not listed.

As to `O=C(OCc1nc2ccccc2s1)c1cnccn1`, the AC40 was 9.58 µM.

In the case of `Cc1nc(-c2cccc(S(=O)(=O)N3CC(C)OC(C)C3)c2)cs1` (stereo not drawn), the AC40 is 18.3 µM.

For the compound `C=CCn1c(=O)c2c(nc3n2CC(C)CN3c2cccc(OC)c2)n(C)c1=O` (stereo not drawn), the AC40 is 10.5 µM.

For the compound `CCc1ccc(CNCc2cccnc2)cc1`, the AC40 is 17.7 µM.

Regarding `Cc1cccn2c(=O)c(C=O)c(N3CCCCCC3)nc12`, the AC40 is 15.1 µM.

With `C[C@H](CO)N1C[C@H](C)[C@H](CN(C)Cc2ccccc2)Oc2ccc(NC(=O)CCCCCC(=O)Nc3ccccc3N)cc2CC1=O`, the AC40 was 10.1 µM.

Regarding `C[C@H]1CN([C@@H](C)CO)C(=O)c2cccc(NC(=O)Nc3ccc(C(F)(F)F)cc3)c2O[C@H]1CN(C)CC1CCCCC1`, the AC40 is 19.1 µM.

Consider `C=CCn1c(=O)[nH]c(=O)c2c(N)c(C(=O)c3ccc(OC)cc3)sc21`, for which the AC40 is 14.5 µM.

Regarding `CCCCCn1c(=O)c(C(=O)c2ccccc2)nc2ccccc21`, the AC40 was 15.6 µM.

In the case of `C[C@H]1CN([C@@H](C)CO)C(=O)Cc2cc(NC(=O)CCCCCC(=O)Nc3ccccc3N)ccc2O[C@H]1CN(C)Cc1ccc(C(F)(F)F)cc1`, the AC40 was 4.15 µM.

In the case of `Fc1ccc(C2=Nn3c(nnc3-c3n[nH]c4c3CCC4)SC2)cc1`, the AC40 was 1.23 µM.

With `O=C(C1CCC1)N1CCCc2cc(S(=O)(=O)N3CCN(c4ccccc4)CC3)ccc21`, the AC40 is 16.6 µM.

Regarding `COc1ccc(S(=O)(=O)Nc2ccc3c(c2)OCCO3)cc1Cl`, the AC40 is 1.46 µM.

With `C[C@H]1CN([C@@H](C)CO)C(=O)Cc2cc(NC(=O)CCCCCC(=O)Nc3ccccc3N)ccc2O[C@H]1CN(C)CC1CCCCC1`, the AC40 is 2.67 µM.

`C[C@H]1CN([C@@H](C)CO)S(=O)(=O)c2ccc(C#Cc3ccc(F)cc3)cc2O[C@@H]1CN(C)S(=O)(=O)c1cn(C)cn1`: the AC40 was 5.96 µM.

For `C[C@H](CO)N1C[C@H](C)[C@@H](CN(C)S(=O)(=O)c2ccc(Cl)cc2)Oc2ccc(NC(=O)NC3CCCCC3)cc2CC1=O`, the AC40 was 10.3 µM.

As to `O=C(C[C@H]1CC[C@@H]2[C@H](COC[C@@H](O)CN2Cc2ccc(Oc3ccccc3)cc2)O1)N1CCCCC1`, the AC40 was 3.19 µM.

For `C[C@@H]1CN([C@H](C)CO)C(=O)Cc2cc(NC(=O)CCCCCC(=O)Nc3ccccc3N)ccc2O[C@H]1CN(C)Cc1ccc(-c2ccccc2)cc1`, the AC40 is 6.3 µM.

In the case of `Cc1ccc(NS(=O)(=O)c2ccc(-n3cccn3)cc2)cc1C`, the AC40 was 16.1 µM.

For `COc1ccc(C#Cc2cnc3c(c2)C(=O)N([C@H](C)CO)C[C@H](C)[C@H](CN(C)Cc2ccccc2)O3)cc1OC`, the AC40 was 2.66 µM.

As to `COc1ccc(C(=O)Nc2ccccc2N2CCOCC2)cc1Br`, the AC40 is 12.1 µM.

With `Cc1ccc(S(=O)(=O)N2CCN(C(=O)c3cccs3)CC2)cc1C`, the AC40 is 9.44 µM.

As to `C[C@@H]1CN([C@H](C)CO)C(=O)c2cc(NS(=O)(=O)c3ccc(Cl)cc3)ccc2O[C@@H]1CN(C)Cc1ccc(C(=O)Nc2ccccc2N)cc1`, the AC40 is 11.3 µM.

For `N#C[C@@H]1[C@@H](c2ccc(-c3ccc(F)cc3)cc2)[C@H](CO)N1C(=O)Cc1ccccc1`, the AC40 was 9.36 µM.

As for `Cc1ccc(S(=O)(=O)N(C)C[C@@H]2Oc3ccc(NS(=O)(=O)c4ccc(Cl)cc4)cc3C(=O)N([C@H](C)CO)C[C@@H]2C)cc1`, the AC40 was 8.22 µM.

For `Cc1cccc(-c2nnc3n2N=C(c2ccccc2Br)CS3)c1`, the AC40 was 0.28 µM.

Consider `CCS(=O)(=O)c1ncc(Cl)c(C(=O)Nc2ccc(C)cc2)n1`, for which the AC40 is 2.8 µM.

As to `C[C@@H]1CN([C@H](C)CO)C(=O)c2cc(NC(=O)Nc3cccc4ccccc34)ccc2O[C@@H]1CN(C)Cc1ccc(C(=O)Nc2ccccc2N)cc1`, the AC40 was 6.44 µM.

For `COc1ccc(CN(C)C[C@H]2Oc3ccc(NS(=O)(=O)c4ccc(Cl)cc4)cc3CC(=O)N([C@@H](C)CO)C[C@@H]2C)cc1`, the AC40 was 0.484 µM.

Regarding `CCS(=O)(=O)c1ncc(Cl)c(C(=O)Nc2ccccc2OC)n1`, the AC40 is 2.12 µM.

For the compound `C[C@@H]1CN([C@H](C)CO)C(=O)c2cc(NC(=O)Nc3cccc4ccccc34)ccc2O[C@H]1CN(C)Cc1ccc(C(=O)Nc2ccccc2N)cc1`, the AC40 is 17 µM.

For the compound `CCOC(=O)N1CCN(C(=O)CN(Cc2ccccc2)S(=O)(=O)c2ccc(OC)c(Cl)c2)CC1`, the AC40 is 15.7 µM.

Take `C[C@H]1CN([C@@H](C)CO)C(=O)c2cc(N(C)C)ccc2O[C@@H]1CN(C)Cc1ccc(C(=O)Nc2ccccc2N)cc1`: the AC40 is 5.34 µM.

For the compound `O=C1c2ccccc2-c2onc3ccc(Oc4ccccc4)c1c23`, the AC40 is 5.91 µM.

With `CCC(C(=O)NC1CCCC1)N(C(=O)Cn1nnc(-c2ccc(OC)c(OC)c2)n1)c1cccc(O)c1` (stereo not drawn), the AC40 was 8.39 µM.

In the case of `CCOc1ccc2nc(N3CCCC(C(=O)N4CCN(CC)CC4)C3)sc2c1` (stereo not drawn), the AC40 is 6.42 µM.

Take `Oc1ccc(Cl)cc1C1=NNC(c2cccs2)C1` (stereo not drawn): the AC40 was 11.4 µM.

Regarding `Cc1ccc(C(C(=O)NC2CCCC2)N(C(=O)Cc2cccs2)c2ccc3c(c2)OCCO3)cc1` (stereo not drawn), the AC40 was 19 µM.

As to `C[C@@H]1CN([C@@H](C)CO)C(=O)Cc2cc(NC(=O)CCCCCC(=O)Nc3ccccc3N)ccc2O[C@@H]1CN(C)CC1CCCCC1`, the AC40 is 7.13 µM.

On to `Cc1ccc(S(=O)(=O)N(C)C[C@H]2Oc3c(NC(=O)Nc4ccccc4)cccc3C(=O)N([C@@H](C)CO)C[C@H]2C)cc1`, for which the AC40 is 18 µM.

On to `O=S(=O)(Nc1nc2c(s1)CCCC2)c1ccc2ccccc2c1`, for which the AC40 is 5.94 µM.

Turning to `O=C(/C=C/Sc1ncn[nH]1)c1ccc(Cl)cc1`, the AC40 was 6.34 µM.

In the case of `C[C@H](CO)N1C[C@H](C)[C@H](CN(C)Cc2ccc(C(=O)Nc3ccccc3N)cc2)Oc2ccc(NC(=O)Cc3cn(C)c4ccccc34)cc2C1=O`, the AC40 was 6.08 µM.

As for `CCSC1(SCC)N=C(N)C2(C#N)C(c3ccc(F)cc3)C12C#N` (stereo not drawn), the AC40 was 6.36 µM.

Take `Oc1[nH]c2ccccc2c1C=Nc1ccc2c(c1)OCO2`: the AC40 was 1.99 µM.

For `C[C@@H]1CN([C@H](C)CO)C(=O)c2cccc(NC(=O)Nc3ccccc3)c2O[C@H]1CN(C)Cc1ccc(C(=O)Nc2ccccc2N)cc1`, the AC40 is 11 µM.

As to `CCOC(=O)n1c(=O)n(Cc2c(Cl)cccc2Cl)c2ccccc21`, the AC40 is 7.14 µM.

With `O=S(=O)(c1ccccc1)c1nc(-c2ccco2)oc1N1CCCCCC1`, the AC40 is 6.08 µM.

With `COc1ccc(CN2[C@H](CO)[C@H]3c4ccccc4NC[C@H]32)cc1`, the AC40 was 17.8 µM.

Take `O=C(CSCc1cnn(-c2ccccc2)c1-n1cccc1)NCc1cccs1`: the AC40 is 18.9 µM.

On to `O=C(Nc1ccc(S(=O)(=O)N2CCCCC2)cc1)C1CCN(C(=O)c2ccco2)CC1`, for which the AC40 is 5.15 µM.

Consider `C[C@@H]1C[C@@H]([C@H](O)CC2CC(=O)NC(=O)C2)C(=O)[C@@H](C)C1`, for which the AC40 is under 0.16 µM.

With `COC(=O)c1cc(=O)n(CCc2ccccc2F)c(=Nc2ccc(F)c(Cl)c2)s1`, the AC40 was 2.81 µM.

In the case of `CCCCNc1oc(-c2cccs2)nc1S(=O)(=O)c1ccccc1`, the AC40 is 7.73 µM.

`C[C@H](CO)N1C[C@H](C)[C@H](CN(C)Cc2ccc(C(=O)Nc3ccccc3N)cc2)Oc2ccc(N(C)C)cc2C1=O`: the AC40 was 2.53 µM.

For the compound `O=C(NCC(c1cccnc1)N1CCN(c2ccc(F)cc2)CC1)c1ccc2c(c1)OCO2` (stereo not drawn), the AC40 was 5.7 µM.

For the compound `CCC(C(=O)N(C(C)C)C(C)C)c1ccccc1` (stereo not drawn), the AC40 was 18.8 µM.

As for `C[C@@H]1CN([C@H](C)CO)C(=O)Cc2cc(NC(=O)CCCCCC(=O)Nc3ccccc3N)ccc2O[C@@H]1CN(C)CC1CCCCC1`, the AC40 was 15.4 µM.
